Data taken from patent US20190246658A1, “METHODS OF HANDLING PAPAYA” (AGROFRESH INC., priority 2013, published 2019).

Columns and labels:
[1] = system: Papayas ‘Golden’; assay: Example 2 (yellow stage): percentage of fruits with ideal internal pulp firmness (2.5-7.0 lbf); assay type: in vivo, papaya; settings: 500 ppb of MCP, ideal = between 2.5 and 7.0 lbf
Procedure: A similar test to Example 1 but papayas are tested during their yellow stage. Papayas ‘Golden’ were harvested in Linhares—Espírito Santo—Brazil. The fruits were packed in MAP Bags and put in cardboard boxes.
The fruits were first left at room temperature during 3 days to reach yellow maturity stage.
After that the appropriate weight of papayas was placed in each bag after harvest. Bags were placed in the same cardboard boxes used to export the fruits. Papayas then were cold stored at (11° C.) at the Laboratory.
The Test Protocol that was used was as follows. 18 MAP bags were packed. Each bag held approximately 3.8 kg (8.4 lb) of papayas. One such bag was packed in each cardboard box. Total weight of papayas in MAP bags was approximately 68 kg. Approximately 68 kg of papayas were placed into cardboard boxes identical to those used for the MAP bags.
The MAP-packaged papayas were packaged as follows: Nine fruits, approximately 3.8 kg were carefully placed into microperforated bags, and the bags were sealed by twisting the open side of the bag, folding down the twisted end, and placing a rubber band around the twisted and folded end of the bag.
All papayas were kept at cold temperature (11° C.) during 26 days and after that the fruits (packed in MAP bags or not) were put in room temperature (22° C.) during 8 days.
After the 3 days for maturation at room temperature, when the papayas had around 5 lbf of average firmness, each treatment set was marked, placed in a hermetical chamber at cold temperature (11° C.). All chambers were of equal size and packed the same way. Treatment was for 12 hr. In the chambers for the 2 “MCP” treatment groups, at the beginning of the treatment period, SmartFresh™ were placed in the chamber. The amount of SmartFresh™ was chosen to achieve the indicated concentration of 1-methylcyclopropene in the atmosphere of the chamber.
For the Pulp Firmness evaluation two measurements were done, one for External Firmness and another for Internal Firmness. For External Firmness, the papayas had the skin removed with a peeler and the pulp firmness was measured with a Firmness Texture Analyzer (FTA) with a probe of 8 mm. For Internal Firmness, the papayas were cut transversally and a measurement close to the center of the fruit was taken with the FTA.
The desirable internal pulp firmness for consumption of papayas is between 2.5 and 7.0 lbf. The percentage of fruits with internal pulp firmness between 2.5 and 7.0 lbf was calculated.

[2] = system: Papayas ‘Golden’; assay: Example 3: pulp firmness, external, MAP bags with different perforations; assay type: in vivo, papaya; settings: for External Firmness - Difference with Untreated Fruits (Δ) / Pulp Firmness - External: 100 ppb of MCP; for External Firmness - Difference with Untreated Fruits (Δ): 5 Days @ 24° C.
Procedure: Papayas ‘Golden’ were harvested in Linhares—Espírito Santo—Brazil. The fruits were packed in MAP Bags and put in cardboard boxes.
The appropriate weight of papayas was placed in each bag after harvest. Bags were placed in the same cardboard boxes used to export the fruits. Papayas then were cold stored at (11° C.) at the Laboratory.
The Test Protocol that was used was as follows. 40 MAP bags were packed. Each bag held approximately 3.8 kg (8.4 lb) of papayas. One of such bag was packed in each cardboard box. Total weight of papayas in MAP bags was approximately 152 kg. Approximately 8 kg of papayas were placed into cardboard boxes identical to those used for the MAP bags.
The MAP-packaged papayas were packaged as follows: Nine fruits, approximately 3.8 kg, were carefully placed into microperforated MAP-bags, and the bags were sealed by twisting the open side of the bag, folding down the twisted end, and placing a rubber band around the twisted and folded end of the bag.
All papayas were kept at cold temperature (11° C.) during 14 days and after that the fruits (packed in MAP bags or not) were put in room temperature (24° C.) during 5 days.
One day after harvest, when the papayas had around 30 lbf of average firmness, each treatment set was marked and placed in a hermetical chamber at cold temperature (11° C.). All chambers were of equal size and packed the same way. Treatment was for 12 hours.
In the chambers, SmartFresh™ was placed at the beginning of the treatment period for the 5 “MCP” treatment groups. The amount of SmartFresh™ was chosen to achieve the indicated concentration of 1-methylcyclopropene in the atmosphere of the chamber.
Evaluation for skin color and firmness was as follows. Day “zero” was the day the papayas were removed from the chamber and placed in storage.
For External Firmness, the papayas had the skin removed with a peeler and the pulp firmness was measured with a Firmness Texture Analyzer (FTA) with a probe of 8 mm.

CC1=CC1 [MCP, 1-methylcyclopropene]
Percentage of fruits with ideal internal pulp firmness ([1]; MAP bag, 26 days at 11° C. then 0 days @ 22° C.): 77.08% | Percentage of fruits with ideal internal pulp firmness ([1]; MAP bag, 26 days at 11° C. then 4 days @ 22° C.): 28.57% | Percentage of fruits with ideal internal pulp firmness ([1]; MAP bag, 26 days at 11° C. then 8 days @ 22° C.): 0.00% | Percentage of fruits with ideal internal pulp firmness ([1]; No Bag, 26 days at 11° C. then 0 days @ 22° C.): 60.87% | Percentage of fruits with ideal internal pulp firmness ([1]; No Bag, 26 days at 11° C. then 4 days @ 22° C.): 12.90% | Percentage of fruits with ideal internal pulp firmness ([1]; No Bag, 26 days at 11° C. then 8 days @ 22° C.): 0.00% | external firmness during shelf-life, in words ([2]; 1-MCP alone (no MAP)): not high enough external firmness | External Firmness - Difference with Untreated Fruits (Δ) ([2]; 24 Perf. MAP bag): 2.59 lbf | Pulp Firmness - External ([2]; 24 Perf. MAP bag, 14 days at 11° C. then 3 days @ 24° C.): 5.23 lbf | Pulp Firmness - External ([2]; 24 Perf. MAP bag, 14 days at 11° C. then 5 days @ 24° C.): 4.12 lbf | External Firmness - Difference with Untreated Fruits (Δ) ([2]; 48 Perf. MAP bag): 0.89 lbf | Pulp Firmness - External ([2]; 48 Perf. MAP bag, 14 days at 11° C. then 3 days @ 24° C.): 3.68 lbf | Pulp Firmness - External ([2]; 48 Perf. MAP bag, 14 days at 11° C. then 5 days @ 24° C.): 2.42 lbf | External Firmness - Difference with Untreated Fruits (Δ) ([2]; 90 Perf. MAP bag): 1.75 lbf | Pulp Firmness - External ([2]; 90 Perf. MAP bag, 14 days at 11° C. then 3 days @ 24° C.): 3.94 lbf | Pulp Firmness - External ([2]; 90 Perf. MAP bag, 14 days at 11° C. then 5 days @ 24° C.): 3.28 lbf | External Firmness - Difference with Untreated Fruits (Δ) ([2]; 180 Perf. MAP bag): 1.27 lbf | Pulp Firmness - External ([2]; 180 Perf. MAP bag, 14 days at 11° C. then 3 days @ 24° C.): 3.64 lbf | Pulp Firmness - External ([2]; 180 Perf. MAP bag, 14 days at 11° C. then 5 days @ 24° C.): 2.80 lbf | External Firmness - Difference with Untreated Fruits (Δ) ([2]; No Bag): 1.09 lbf | Pulp Firmness - External ([2]; No Bag, 14 days at 11° C. then 3 days @ 24° C.): 6.23 lbf | Pulp Firmness - External ([2]; No Bag, 14 days at 11° C. then 5 days @ 24° C.): 2.62 lbf
